Counter-ions that a name gives are not always drawn. Like-named read-outs stand apart in the source and are kept apart here.

The term ED50 denotes the dose at which the effect has come halfway, by size or by number of responders.

One data set has as its system guinea pig. Briefly: Anti asthmatic activity: protection from histamine-induced asthmatic dyspnea, subcutaneous (Parker et al.). Type of data set: in vivo. Conditions: Cavia porcellus, sc, 0.5 h, read-out: anti-asthmatic activity ED50.
In another data set the target is T1, β2 (Canis lupus familiaris, UniProt P54833).
T1 construct: from tissue; host or cells: airways of anesthetized mongrel dogs, in vivo
T1 sequence (P54833 whole entry): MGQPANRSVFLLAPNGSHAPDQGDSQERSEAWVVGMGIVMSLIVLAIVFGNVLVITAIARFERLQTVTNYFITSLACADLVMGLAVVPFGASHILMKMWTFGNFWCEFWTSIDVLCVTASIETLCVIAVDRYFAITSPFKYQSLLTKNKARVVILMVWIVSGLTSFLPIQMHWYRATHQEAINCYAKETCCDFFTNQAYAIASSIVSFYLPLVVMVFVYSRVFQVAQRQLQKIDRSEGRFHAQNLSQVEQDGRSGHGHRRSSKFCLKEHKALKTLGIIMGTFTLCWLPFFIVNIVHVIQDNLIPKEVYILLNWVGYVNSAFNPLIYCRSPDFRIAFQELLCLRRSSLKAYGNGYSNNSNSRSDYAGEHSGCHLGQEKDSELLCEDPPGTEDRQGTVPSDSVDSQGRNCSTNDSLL
Description: Bronchodilator activity, β2 action: histamine-induced increase in bronchial resistance, intraduodenal (Konzett and Rossler). Format: in vivo, Mongorel dogs. Conditions: dog, anesthetized dogs, histamine dihydrochloride 10 μg/Kg i.v., peak effect, read-out: β2 action i.d. ED50. The method, then: a. Bronchodilator activity, B2 action
The experiments were carried out according to the method of Konzett and Rossler (Arch. exp. Path. Pharmakol., 195, 11-14 (1940)). Mongorel dogs were anesthetized with pentobarbital Na. Temporary increase in bronchial resistance, measured with transducer connected to a polygraph, were produced by histamine dihydrochloride, 10 μg/Kg injected rapidly intravenously at intervals of 30 min. The test samples were injected intraduodenally and the time-course of antihistamine activity of the sample (the inhibition rate (%) against the control) was obtained.
ED50 (μg/Kg) values of β-agonists were obtained from the dose response curve drawn according to the peak effect on each dose.

Another data set relates to β1 /β2. Briefly: Broncho-selectivity (ratio of β1/β2). Type of data set: in vivo, Mongorel dogs. The note with it: intraduodenal, anesthetized dogs; from ED25 heart rate and ED50 bronchodilator. The text has this:
The broncho-selectivity was obtained by the following equation. [formula]

The subject of a further data set is β1. Briefly: Action on heart rate, β1 action, intraduodenal. Format: in vivo, Mongorel dogs. The procedure: b. Action on heartrate, β1 action.
Mongorel dogs were anesthetized with pentobarbital Na. Heart rate (HR) was recorded on polygraph. […] The time-course of ΔHR (the increased HR against the control) was obtained.
The dose response curve drawn according to the peak response on each dose and the ED25 beats/min. (μg/Kg), that is the dose of the sample producing 25 beats/min. increase in heart rate was obtained from the curve.

The conditions of data set [1]: cited from earlier work.
[2] abbreviates: subcutaneous, 30 min. prior to spasmogen (0.1% histamine dihydrochloride spray), guinea pig.

Description for guinea pig: The experiments were carried out according to the method of Parker et al., (J. Pharmacol. Exptl. Therap., 118, 359-364 (1956)). A guinea pig was placed in a 11 liters glass chamber and exposed to the spasmogen by means of a nebulizer. […] Samples were administered subcutaneously to animals 30 min. prior the application of the spasmogen.
ED50 was calculated by the method of Litchfield-Wilcoxon (J. Pharmacol. Exptl. Therap., 96, 99-113 (1949) using 4-8 groups and one group consists of 4-8 of guinea pig.

For `COC(=O)Nc1ccc(C(O)CNC(C)(C)C)cc1Cl` (stereo not drawn) [Ex. 23, 3-chloro-4-methoxycarbonylamino-α-(N-tert-butylaminomethyl)benzyl alcohol], in the data set on guinea pig (setting [2]), the ED50 lay within 0.063 to 0.125 mg/kg.

As for `CC(C)OC(=O)Nc1c(Cl)cc(C(O)CNC(C)(C)C)cc1Cl` (stereo not drawn) [Ex. 12, 3,5-dichloro-4-isopropoxycarbonylamino-α-(tert-butylaminomethyl)benzyl alcohol], in the data set on guinea pig (setting [2]), the ED50 amounted to 0.032 mg/kg.

For the molecule `COC(=O)Nc1c(Cl)cc(C(O)CNC(C)(C)C)cc1Br` (stereo not drawn) [Ex. 18, 3-bromo-5-chloro-4-methoxycarbonylamino-α-(tert-butylaminomethyl)-benzyl alcohol 1/2 fumarate], the ED50 in the data set with guinea pig (setting [2]) is 0.063 mg/kg.

Turning to `COC(=O)Nc1c(Br)cc(C(O)CNC(C)(C)C)cc1Br` (stereo not drawn) [Ex. 8, 3,5-dibromo-4-methoxycarbonylamino-α-(tert-butylaminomethyl)benzyl alcohol], the ED50 in the data set with guinea pig (setting [2]) turned out to be 0.125 mg/kg.

Consider `CC(C)(C)NCC(O)c1cc(Cl)c(N)c(Cl)c1` (stereo not drawn) [NAB 365, 1-(4-amino-3,5-dichlorophenyl)-2-tert-butylamino ethanol, reference compound], for which the values for the ED50 at β2 and in the data set with guinea pig were 0.0123 mg/kg and 0.49 mg/kg, respectively. For the same molecule, the “broncho-selectivity (Ratio of β1 /β2)” value in the data set with β1 /β2 came to 0.46. Also, in the data set on β1 (intraduodenal, anesthetized dogs, dose producing 25 beats/min. increase in heart rate), the “β1 action i.d. ED25 beats/min” value came to 0.0057 mg/kg. Moreover, in data set [1] (in words), the “bronchodilator activity by oral administration” value is “strong bronchodilator activity”. In addition, the “bronchodilator activity, times stronger than Isoproterenol” value in data set [1] (oral administration, versus Isoproterenol) is reported as “about 500 times”. For the same molecule, the “bronchodilator activity, times stronger than Salbutamol” value in data set [1] (oral administration, versus Salbutamol) is reported as “about 100 times”.

Turning to `CNC(=O)Nc1c(Cl)cc(C(O)CNC(C)(C)C)cc1Cl` (stereo not drawn) [Ex. 15, 3,5-dichloro-4-methylcarbamoylamino-α-(tert-butylaminomethyl)benzyl alcohol], the ED50 with guinea pig (setting [2]) lay in the range of 0.125 to 0.25 mg/kg.

`COCCOC(=O)Nc1c(Cl)cc(C(O)CNC(C)(C)C)cc1Cl` (stereo not drawn) [Ex. 14, 3,5-dichloro-4-(2-methoxyethoxy)carbonylamino-α-(tert-butylaminomethyl)benzyl alcohol hydrochloride]: in the data set with guinea pig (setting [2]), the median effective dose (ED50) was 0.032 mg/kg.

Take `CCNc1c(Cl)cc(C(O)CNC(C)(C)C)cc1Cl.Cl` (stereo not drawn) [Ex. 6, 3,5-dichloro-4-ethylamino-α-(tert-butylaminomethyl)-benzyl alcohol mono-hydrochloride]: the ED50 with guinea pig lay in the range of 0.125 to 0.25 mg/kg.

As to `CCOC(=O)Nc1c(Cl)cc(C(O)CNC(C)(C)C)cc1Cl.Cl` (stereo not drawn) [Ex. 10, 3,5-dichloro-4-ethoxycarbonylamino-α-(tert-butylaminomethyl)-benzyl alcohol hydrochloride], the ED50 at β2 came to 0.0045 mg/kg. Moreover, the “broncho-selectivity (Ratio of β1 /β2)” value with β1 /β2 worked out at 4.3. The “β1 action i.d. ED25 beats/min” value in the data set on β1 (dog, in vivo) was found to be 0.0195 mg/kg.

With `CC(C)(C)NCC(O)c1cc(Cl)c(NC(=O)OCc2ccccc2)c(Cl)c1.Cl` (stereo not drawn) [Ex. 13, 3,5-dichloro-4-benzyloxycarbonylamino-α-(tert-butylaminomethyl)benzyl alcohol hydrochloride], in the data set with guinea pig (setting [2]), the ED50 was 0.125 mg/kg.

(Values after patent US4063025A, “4-Substituted amino-α-aminomethylbenzyl alcohol derivatives” (Yamanouchi Pharmaceutical Co., Ltd., priority 1975, dated 1977).)
